Reference: ChEMBL document CHEMBL1201862, “PubChem BioAssay data set” (2004)
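Exposure lasted 48 hours, with cells grown in 96-well plates and compounds tested at five concentrations. At the GI50, growth is halved.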 The source made the active and inactive calls. No stated cut-off is given here; in the data, active = GI50 up to about 1.1 µM and inactive = higher.

Columns and labels:
Assay in all cases: NCI anticancer screen, dose series, 48 h
HOP-62 = test system: HOP-62
EKVX = test system: EKVX
HCC 2998 = test system: HCC 2998
NCI-H522 = test system: NCI-H522
SK-OV-3 = test system: SK-OV-3
UACC-62 = test system: UACC-62
Hs-578T = test system: Hs-578T
DU-145 = test system: DU-145
T47D = test system: T47D
LOX IMVI = test system: LOX IMVI
HT-29 = test system: HT-29
M14 = test system: M14
NCI-H23 = test system: NCI-H23
MDA-N = test system: MDA-N
Malme-3M = test system: Malme-3M
RPMI-8226 = test system: RPMI-8226
SNB-75 = test system: SNB-75
RXF 393 = test system: RXF 393
PC-3 = test system: PC-3
U-251 = test system: U-251
SK-MEL-28 = test system: SK-MEL-28
SK-MEL-5 = test system: SK-MEL-5
KM12 = test system: KM12
SW-620 = test system: SW-620
COLO 205 = test system: COLO 205
TK-10 = test system: TK-10
OVCAR-8 = test system: OVCAR-8
UO-31 = test system: UO-31
SF-268 = test system: SF-268
IGROV-1 = test system: IGROV-1
OVCAR-4 = test system: OVCAR-4
CCRF-CEM = test system: CCRF-CEM
SN12C = test system: SN12C
MDA-MB-231 = test system: MDA-MB-231
MCF7 = test system: MCF7
A498 = test system: A498
HCT-116 = test system: HCT-116
NCI-H460 = test system: NCI-H460
NCI/ADR-RES = test system: NCI/ADR-RES
CAKI-1 = test system: CAKI-1
MOLT-4 = test system: MOLT-4
OVCAR-5 = test system: OVCAR-5
K562 = test system: K562
A549 = test system: A549
NCI-H226 = test system: NCI-H226
HL-60 = test system: HL-60
SK-MEL-2 = test system: SK-MEL-2
SNB-19 = test system: SNB-19
786-0 = test system: 786-0
SF-539 = test system: SF-539
SF-295 = test system: SF-295
HCT-15 = test system: HCT-15
OVCAR-3 = test system: OVCAR-3
ACHN = test system: ACHN
UACC-257 = test system: UACC-257
SR = test system: SR
HOP-92 = test system: HOP-92
MDA-MB-435 = test system: MDA-MB-435

In the case of CC(C)/C(Cl)=N\OC(=O)Nc1cccc(Cl)c1, the GI50 (HOP-62) is reported as > 46 µM (inactive), the GI50 (EKVX) is reported as 16.3 µM (inactive) and the GI50 (HCC 2998) is reported as 17 µM (inactive). The GI50 (NCI-H522) was 1.66 µM (inactive), the GI50 (SK-OV-3) was > 43.9 µM (inactive) and the GI50 (UACC-62) was 20.2 µM (inactive). For the same compound, the GI50 (Hs-578T) was 28.3 µM (inactive), the GI50 (DU-145) was 22.5 µM (inactive) and the GI50 (T47D) was 26.8 µM (inactive). For the same compound, the GI50 (LOX IMVI) was 3.72 µM (inactive), the GI50 (HT-29) was 15 µM (inactive) and the GI50 (M14) was 0.305 µM (active). The GI50 (NCI-H23) was 15.2 µM (inactive), the GI50 (MDA-N) was 14.8 µM (inactive) and the GI50 (Malme-3M) was 11.6 µM (inactive). The GI50 (RPMI-8226) was 4.45 µM (inactive), the GI50 (SNB-75) was 13.9 µM (inactive) and the GI50 (RXF 393) was 18.5 µM (inactive). The GI50 (PC-3) was 15.9 µM (inactive), the GI50 (U-251) was 18.4 µM (inactive) and the GI50 (SK-MEL-28) was 16.9 µM (inactive). The GI50 (SK-MEL-5) was 13.5 µM (inactive), the GI50 (KM12) was 16.5 µM (inactive) and the GI50 (SW-620) was 2.97 µM (inactive). The GI50 (COLO 205) was 2.08 µM (inactive), the GI50 (TK-10) was 15.3 µM (inactive) and the GI50 (OVCAR-8) was 15.4 µM (inactive). For the same compound, the GI50 (UO-31) was 19.1 µM (inactive), the GI50 (SF-268) was 18.5 µM (inactive) and the GI50 (IGROV-1) was 18.6 µM (inactive). The GI50 (OVCAR-4) was 13.3 µM (inactive), the GI50 (CCRF-CEM) was 1.67 µM (inactive) and the GI50 (SN12C) was 16.1 µM (inactive). For the same compound, the GI50 (MDA-MB-231) was 15.2 µM (inactive), the GI50 (MCF7) was 15.8 µM (inactive) and the GI50 (A498) was 17.4 µM (inactive). For the same compound, the GI50 (HCT-116) was 18.1 µM (inactive), the GI50 (NCI-H460) was 13.7 µM (inactive) and the GI50 (NCI/ADR-RES) was 10.6 µM (inactive). The GI50 (CAKI-1) was 17.7 µM (inactive), the GI50 (MOLT-4) was 2.65 µM (inactive) and the GI50 (OVCAR-5) was 13.5 µM (inactive). The GI50 (K562) was 2.07 µM (inactive), the GI50 (A549) was 18.4 µM (inactive) and the GI50 (NCI-H226) was 20.8 µM (inactive). For the same compound, the GI50 (HL-60) was 1.71 µM (inactive), the GI50 (SK-MEL-2) was 15.5 µM (inactive) and the GI50 (SNB-19) was > 100 µM (inactive). For the same compound, the GI50 (786-0) was 15.7 µM (inactive), the GI50 (SF-539) was 18.9 µM (inactive) and the GI50 (SF-295) was 36.1 µM (inactive). For the same compound, the GI50 (HCT-15) was 16.1 µM, the GI50 (OVCAR-3) was 3.28 µM (inactive) and the GI50 (ACHN) was 6.22 µM (inactive). The GI50 (UACC-257) was 13.6 µM (inactive) and the GI50 (SR) was 2.49 µM (inactive).
With CCCCC[C@H]1CCCCCCCCCC(=O)OC2C(O[C@@H]3OC(C)[C@H](OC(=O)[C@@H](C)CC)C(O[C@@H]4OC(C)[C@H](O)C(O)[C@@H]4O)[C@@H]3OC(=O)[C@H](C)CC)[C@H](OC3C(O)[C@@H](O)C(C)O[C@H]3O1)OC(CO)[C@H]2O (stereo not given in full) the GI50 (HOP-62) was 18.2 µM (inactive), the GI50 (EKVX) was 19.2 µM (inactive) and the GI50 (HCC 2998) was 17.2 µM (inactive). For the same compound, the GI50 (NCI-H522) was 17.7 µM (inactive), the GI50 (SK-OV-3) was 15.6 µM (inactive) and the GI50 (UACC-62) was 16.9 µM (inactive). The GI50 (Hs-578T) was 16.4 µM (inactive), the GI50 (DU-145) was 16.2 µM (inactive) and the GI50 (T47D) was 17 µM (inactive). For the same compound, the GI50 (LOX IMVI) was 17 µM (inactive), the GI50 (HOP-92) was 22.3 µM (inactive) and the GI50 (HT-29) was 16.7 µM (inactive). The GI50 (M14) was 18.2 µM (inactive), the GI50 (NCI-H23) was 17.9 µM (inactive) and the GI50 (MDA-N) was 17.4 µM (inactive). For the same compound, the GI50 (Malme-3M) was 15.3 µM (inactive), the GI50 (RPMI-8226) was 16.8 µM (inactive) and the GI50 (PC-3) was 16.2 µM (inactive). For the same compound, the GI50 (U-251) was 17.9 µM (inactive), the GI50 (SK-MEL-28) was 16.1 µM (inactive) and the GI50 (SK-MEL-5) was 17.1 µM (inactive). For the same compound, the GI50 (KM12) was 20 µM (inactive), the GI50 (SW-620) was 16.5 µM (inactive) and the GI50 (COLO 205) was 11.9 µM (inactive). For the same compound, the GI50 (TK-10) was 20.1 µM (inactive), the GI50 (OVCAR-8) was 19.3 µM (inactive) and the GI50 (UO-31) was 16.1 µM (inactive). For the same compound, the GI50 (SF-268) was 16.3 µM (inactive), the GI50 (IGROV-1) was 17.1 µM (inactive) and the GI50 (OVCAR-4) was 19.2 µM (inactive). The GI50 (CCRF-CEM) was 18.6 µM (inactive), the GI50 (SN12C) was 17.5 µM (inactive) and the GI50 (MDA-MB-231) was 16.8 µM (inactive). The GI50 (MCF7) was 17.3 µM (inactive), the GI50 (HCT-116) was 16.1 µM (inactive) and the GI50 (NCI-H460) was 18.2 µM (inactive). For the same compound, the GI50 (NCI/ADR-RES) was 18.8 µM (inactive), the GI50 (CAKI-1) was 17.3 µM (inactive) and the GI50 (MOLT-4) was 15.6 µM (inactive). The GI50 (OVCAR-5) was 16.7 µM (inactive), the GI50 (K562) was 18.8 µM (inactive) and the GI50 (A549) was 16.8 µM (inactive). For the same compound, the GI50 (HL-60) was 19 µM (inactive), the GI50 (SK-MEL-2) was 16.4 µM (inactive) and the GI50 (SNB-19) was 16.1 µM (inactive). For the same compound, the GI50 (786-0) was 17.4 µM (inactive), the GI50 (SF-295) was 18 µM (inactive) and the GI50 (HCT-15) was 16.7 µM. The GI50 (OVCAR-3) was 17.9 µM (inactive), the GI50 (ACHN) was > 10 µM (inactive) and the GI50 (UACC-257) was 15.8 µM (inactive). The GI50 (SR) was 16.7 µM (inactive).
For O=C1c2ccccc2CC12Cc1cc3c(cc1C2)CCC3, the GI50 (HOP-62) was > 100 µM (inactive), the GI50 (EKVX) was 99.3 µM (inactive) and the GI50 (HCC 2998) was 57.5 µM (inactive). The GI50 (NCI-H522) was 30.5 µM (inactive), the GI50 (SK-OV-3) was > 100 µM (inactive) and the GI50 (MDA-MB-435) was 34 µM (inactive). For the same compound, the GI50 (Hs-578T) was > 100 µM (inactive), the GI50 (DU-145) was > 100 µM (inactive) and the GI50 (T47D) was > 100 µM (inactive). The GI50 (LOX IMVI) was 57.1 µM (inactive), the GI50 (HOP-92) was 37.6 µM (inactive) and the GI50 (HT-29) was 21.9 µM (inactive). For the same compound, the GI50 (M14) was 19.5 µM (inactive), the GI50 (NCI-H23) was > 100 µM (inactive) and the GI50 (MDA-N) was 37.5 µM (inactive). For the same compound, the GI50 (Malme-3M) was 22.7 µM (inactive), the GI50 (RPMI-8226) was 32 µM (inactive) and the GI50 (SNB-75) was 33.3 µM (inactive). For the same compound, the GI50 (RXF 393) was 40.6 µM (inactive), the GI50 (PC-3) was 39.8 µM (inactive) and the GI50 (U-251) was 43.1 µM (inactive). The GI50 (SK-MEL-28) was 45.8 µM (inactive), the GI50 (SK-MEL-5) was 20.5 µM (inactive) and the GI50 (KM12) was 53.5 µM (inactive). The GI50 (SW-620) was 78.2 µM (inactive), the GI50 (COLO 205) was 31.3 µM (inactive) and the GI50 (TK-10) was > 100 µM (inactive). The GI50 (OVCAR-8) was > 100 µM (inactive), the GI50 (UO-31) was 69.3 µM (inactive) and the GI50 (SF-268) was > 100 µM (inactive). The GI50 (IGROV-1) was 87.3 µM (inactive), the GI50 (OVCAR-4) was > 100 µM (inactive) and the GI50 (CCRF-CEM) was 55.3 µM (inactive). The GI50 (SN12C) was 59.7 µM (inactive), the GI50 (MDA-MB-231) was > 100 µM (inactive) and the GI50 (MCF7) was 34.5 µM (inactive). For the same compound, the GI50 (A498) was 84.1 µM (inactive), the GI50 (HCT-116) was 30.6 µM (inactive) and the GI50 (NCI-H460) was 39.9 µM (inactive). For the same compound, the GI50 (NCI/ADR-RES) was 44 µM (inactive), the GI50 (CAKI-1) was > 100 µM (inactive) and the GI50 (MOLT-4) was 22.6 µM (inactive). For the same compound, the GI50 (OVCAR-5) was > 100 µM (inactive), the GI50 (K562) was 86.7 µM (inactive) and the GI50 (A549) was > 100 µM (inactive). For the same compound, the GI50 (NCI-H226) was 15.9 µM (inactive), the GI50 (HL-60) was 24 µM (inactive) and the GI50 (SK-MEL-2) was 31.2 µM (inactive). For the same compound, the GI50 (SNB-19) was > 100 µM (inactive), the GI50 (786-0) was 94.4 µM (inactive) and the GI50 (SF-539) was > 100 µM (inactive). The GI50 (SF-295) was > 100 µM (inactive), the GI50 (HCT-15) was 43.2 µM and the GI50 (OVCAR-3) was 31.6 µM (inactive). For the same compound, the GI50 (ACHN) was 43.3 µM (inactive), the GI50 (UACC-257) was 31.9 µM (inactive) and the GI50 (SR) was 16.7 µM (inactive).
